Reference: PubChem BioAssay (NCI)
“And” between values parts separate entries of the source, which are not always exact repeats. Equal entries are not always repeated.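 In this assay, cells in 96-well plates receive the compound at five concentrations for 48 hours. Endpoints are linearly interpolated between the surrounding concentrations. GI50 = concentration required for 50% inhibition of growth. TGI marks complete inhibition of growth.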

Experiments:
Experiment in all cases: inhibition of tumour cell growth, NCI panel, 48 h
ACHN renal = system: ACHN renal
HCT-116 colon = system: HCT-116 colon
HL-60(TB) leukemia = system: HL-60(TB) leukemia
HOP-92 NSCLC = system: HOP-92 NSCLC
NCI-H23 lung = system: NCI-H23 lung
NCI-H522 lung = system: NCI-H522 lung
RPMI-8226 leukemia = system: RPMI-8226 leukemia
SK-MEL-5 melanoma = system: SK-MEL-5 melanoma
UACC-257 melanoma = system: UACC-257 melanoma
UO-31 renal = system: UO-31 renal

SMILES | GI50 (ACHN renal) [µM] | TGI (ACHN renal) [µM] | GI50 (HCT-116 colon) [µM] | TGI (HCT-116 colon) | GI50 (HL-60(TB) leukemia) | TGI (HL-60(TB) leukemia) [µM] | GI50 (HOP-92 NSCLC) [µM] | TGI (HOP-92 NSCLC) | GI50 (NCI-H23 lung) [µM] | TGI (NCI-H23 lung) | GI50 (NCI-H522 lung) [µM] | TGI (NCI-H522 lung) | GI50 (RPMI-8226 leukemia) [µM] | TGI (RPMI-8226 leukemia) [µM] | GI50 (SK-MEL-5 melanoma) [µM] | TGI (SK-MEL-5 melanoma) | GI50 (UACC-257 melanoma) [µM] | TGI (UACC-257 melanoma) | GI50 (UO-31 renal) [µM] | TGI (UO-31 renal)
Cc1ccc(Nc2ccnc(Nc3cccc(C(N)=O)c3)n2)cc1O | 4.32 | > 25 | 8.01 | > 25 µM | 8.1 µM | > 25 | 0.891 | 8.25 µM | 9.44 | > 25 µM | 3.22 | > 15.1 µM | > 25 | > 25 | 6.63 | > 21.6 µM | 15.5 | > 25 µM | 0.846 | 11.9 µM
CC(C)=CCC[C@](C)(O)[C@H]1CC[C@]2(C)[C@@H]1CC[C@@H]1[C@@]3(C)CC[C@H](OC(=O)CCC(=O)O)C(C)(C)[C@@H]3CC[C@]12C | 28.3 | > 100 | 56.5 | > 100 µM | 22.2 µM | 53.1 | 14.5 | 35.9 µM | 30.8 | > 100 µM | 26.2 | > 100 µM | 7.65 | 52.9 | 17.8 | 43.2 µM | 36.9 | > 100 µM | 13.7 | 28 µM
Nc1ccccc1C#Cc1ccccc1C#CCCCCO | 24.7 | 59 | 12.9 | 26.6 µM | 23.2 µM | 51.8 | 28.1 | 80.4 µM | 24.4 | 58.1 µM | 14.3 | 31.2 µM | 29.8 | 72.2 | 31.5 | 94.3 µM | 19.7 | 50.9 µM | 20.3 | 54.8 µM
C/C(=N\N=C(N)N)c1sc(-c2nc(C)c(/C(C)=N/N=C(N)N)s2)nc1C | – | > 100 | – | > 100 µM | – | 88.2 | – | > 100 µM | – | > 100 µM | – | > 77 µM | – | > 100 | – | > 100 µM | – | > 100 µM | – | > 100 µM
Cc1ccc(NC(=O)NC23CC4CC(CC(F)(C4)C2)C3)cc1 | – | > 100 | – | > 100 µM | – | > 100 | – | > 100 µM | – | > 100 µM | – | > 100 µM | – | 90.2 | – | > 100 µM | – | > 100 µM | – | > 100 µM
OCC1CC2CC1C1(C2)OCCO1 (stereo unspecified) | – | > 100 | – | > 100 µM | – | > 100 | – | > 100 µM | – | > 100 µM | – | > 100 µM | – | > 100 | – | > 100 µM | – | > 100 µM | – | > 100 µM
COc1ccc2c(c1)[n+]([O-])c(-c1ccc(Cl)c(Cl)c1)c(N)[n+]2[O-] | – | > 100 | – | > 100 µM | – | 61 | – | > 100 µM | – | 30.9 µM | – | 27.6 µM | – | > 100 | – | 31.5 µM | – | 46.4 µM | – | > 100 µM
Cc1ccc(S(=O)(=O)ON=C2CC(c3ccccc3)N(C)C(c3ccccc3)C2)cc1 (stereo unspecified) | – | 50.7 | – | 29.6 µM and 27.5 µM | 7.25 µM and 19.9 µM | > 100 | – | 43.5 µM and 46.7 µM | – | 62.9 µM and 47.8 µM | – | 27.4 µM and 25.2 µM | – | 48.2 | – | 32.5 µM and 31.8 µM | – | 52.2 µM and 58 µM | – | 35.3 µM and 49.1 µM
